Data: ChEMBL document CHEMBL4393702, “Structure-activity relationship and synthetic methodologies of α-santonin derivatives with diverse bioactivities: A mini-review” (Eur J Med Chem, 2019)
Converted amounts (≈) assume the structure as drawn.

What was measured:
[1] = biological target: T1, Peroxisome proliferator-activated receptor gamma (Homo sapiens, UniProt P37231); assay: Agonist activity at GAL4- fused PPARgamma LBD (unknown origin) expressed in African green monkey COS7 cells by luciferase reporter gene assay; format: cell-based
T1 sequence (P37231 whole entry): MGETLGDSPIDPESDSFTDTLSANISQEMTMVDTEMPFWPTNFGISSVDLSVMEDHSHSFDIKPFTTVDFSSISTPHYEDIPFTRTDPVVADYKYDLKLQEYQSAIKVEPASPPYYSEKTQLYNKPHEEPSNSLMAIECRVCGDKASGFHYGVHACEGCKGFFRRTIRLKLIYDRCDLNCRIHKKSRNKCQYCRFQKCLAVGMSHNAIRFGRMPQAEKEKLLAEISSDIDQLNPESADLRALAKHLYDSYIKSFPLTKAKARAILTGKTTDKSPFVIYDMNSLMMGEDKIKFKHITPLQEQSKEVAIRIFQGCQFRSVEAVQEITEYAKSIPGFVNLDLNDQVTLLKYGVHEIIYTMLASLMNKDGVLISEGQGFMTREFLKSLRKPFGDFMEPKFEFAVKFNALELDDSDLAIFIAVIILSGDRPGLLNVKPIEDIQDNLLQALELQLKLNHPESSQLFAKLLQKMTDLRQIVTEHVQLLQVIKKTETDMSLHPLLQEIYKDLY

[2] = biological target: T2, Polyunsaturated fatty acid 5-lipoxygenase (Homo sapiens, UniProt P09917); assay: Inhibition of 5-LOX in polymorphonuclear leucocytes (unknown origin); format: cell-based
T2 sequence (P09917 whole entry): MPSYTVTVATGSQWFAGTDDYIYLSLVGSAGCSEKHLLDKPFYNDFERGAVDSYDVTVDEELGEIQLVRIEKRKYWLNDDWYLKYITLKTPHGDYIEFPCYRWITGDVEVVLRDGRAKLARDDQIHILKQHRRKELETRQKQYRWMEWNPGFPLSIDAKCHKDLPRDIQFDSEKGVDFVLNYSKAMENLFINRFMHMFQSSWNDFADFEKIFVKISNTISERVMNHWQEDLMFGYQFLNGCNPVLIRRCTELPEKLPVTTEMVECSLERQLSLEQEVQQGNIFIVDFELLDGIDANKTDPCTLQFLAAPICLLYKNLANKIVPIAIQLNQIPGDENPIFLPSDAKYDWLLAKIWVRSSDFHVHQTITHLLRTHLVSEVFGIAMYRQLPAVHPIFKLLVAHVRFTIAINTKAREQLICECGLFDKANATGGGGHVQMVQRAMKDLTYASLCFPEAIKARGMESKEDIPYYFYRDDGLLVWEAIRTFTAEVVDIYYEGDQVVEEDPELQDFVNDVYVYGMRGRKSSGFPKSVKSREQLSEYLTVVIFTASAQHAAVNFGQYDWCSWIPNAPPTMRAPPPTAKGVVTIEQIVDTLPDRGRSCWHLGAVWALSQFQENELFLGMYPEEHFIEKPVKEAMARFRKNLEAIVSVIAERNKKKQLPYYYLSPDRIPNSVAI

[3] = biological target: T2, Polyunsaturated fatty acid 5-lipoxygenase; assay: Inhibition of 5-LOX (unknown origin)
[4] = Cytotoxicity against human […] cells assessed as reduction in cell viability after 72 hrs by Alamar Blue assay; format: functional, cell-based
[5] = system: Trypanosoma brucei brucei; assay: Antitrypanosomal activity against Trypanosoma brucei brucei GUTat 3.1 after 72 hrs by Alamar Blue assay; format: functional, organism-based; details: GUTat 3.1, 72 h
[6] = Growth inhibition of human Caov cells after 48 hrs by MTT assay; format: functional
[7] = system: Melanoma cell line; assay: Growth inhibition of human Melanoma cells after 48 hrs by MTT assay; format: functional
[8] = system: P388; assay: Cytotoxicity against mouse P388 cells assessed as reduction in cell viability incubated for 72 hrs by MTT assay; format: functional, cell-based; details: P388, 72 h
[9] = system: HONE1 cell line; assay: Cytotoxicity against human HONE1 cells assessed as reduction in cell viability incubated for 72 hrs by MTT assay; format: functional, cell-based; details: HONE1, 72 h
[10] = system: HT-29; assay: Cytotoxicity against human HT-29 cells assessed as reduction in cell viability incubated for 72 hrs by MTT assay; format: functional, cell-based; details: HT-29, 72 h
[11] = Anticancer activity against human IMR13 cells assessed as reduction in cell viability incubated for 1 hr by SRB assay; format: functional, cell-based
[12] = system: THP-1; assay: Anticancer activity against human THP1 cells assessed as reduction in cell viability incubated for 1 hr by SRB assay; format: functional, cell-based; details: THP-1, 1 h
[13] = system: HCT-116; assay: Anticancer activity against human HCT116 cells assessed as reduction in cell viability incubated for 1 hr by SRB assay; format: functional, cell-based; details: HCT-116, 1 h
[14] = system: A549; assay: Anticancer activity against human A549 cells assessed as reduction in cell viability incubated for 1 hr by SRB assay; format: functional, cell-based; details: A549, 1 h

SMILES	IC50 [2] [µM]	IC50 [3] [µM]	GI50 [6] [µM]	GI50 [7] [µM]	other results
CCCOc1cc(C)c2c(c1C)C[C@H]([C@H](C)C(=O)O)CC2	–	–	–	–	EC50 [1]: 15 µM
CCCOc1cc(C)c2c(c1C)C[C@H]([C@@H](C)C(=O)Nc1nccs1)CC2	0.8	1	–	–	–
C[C@@H]1C(=O)O[C@H]2[C@H]1CC[C@@]1(C)CCC(=O)[C@](C)(OO)[C@@H]21	–	–	–	–	EC50 [4]: 64.2 µg/mL (≈ 227 µM); EC50 [5]: 0.4 µg/mL (≈ 1.42 µM)
CCCOc1cc(C)c2c(c1C)C[C@H]([C@@H](C)C(=O)Nc1ncc(C)s1)CC2	1	0.8	–	–	–
COc1ccc(N2CCN(C[C@@H]3C(=O)O[C@@H]4C5=C(C)C(=O)C=C[C@]5(C)CC[C@@H]34)CC2)cc1	–	–	3	3	–
C[C@@H]1C(=O)O[C@H]2C3=CC(=O)C[C@@H](O)[C@]3(C)CC[C@@H]12	–	–	–	–	IC50 [8]: 3.1 to 6.9 µM; IC50 [9]: 3.1 to 6.9 µM; IC50 [10]: 3.1 to 6.9 µM
CC1=C2[C@H]3OC(=O)[C@@H](CN4CCOCC4)[C@@H]3CC[C@@]2(C)C=CC1=O	–	–	4	3	–
CC1=C2[C@H]3OC(=O)[C@@H](CN4CCN(Cc5ccc6c(c5)OCO6)CC4)[C@@H]3CC[C@@]2(C)C=CC1=O	–	–	4	2	–
CC1=C2C(=O)[C@H]([C@@H](C)C(=O)OCc3ccccc3)CC[C@@]2(C)C=CC1Cc1ccccc1 (stereo partly drawn)	–	–	–	–	IC50 [11]: 0.23 µM; IC50 [12]: 0.51 µM; IC50 [13]: 0.6 µM; IC50 [14]: 0.3 µM
CCCOc1cc(C)c2c(c1C)C[C@H]([C@@H](C)C(=O)NCc1cccs1)CC2	8	3	–	–	–
CCCOc1cc(C)c2c(c1C)C[C@H]([C@@H](C)C(=O)Nc1ccccn1)CC2	0.9	6	–	–	–
CCCN(CCC)C[C@@H]1C(=O)O[C@@H]2C3=C(C)C(=O)C=C[C@]3(C)CC[C@@H]12	–	–	2	4	–
CC1=C2[C@H]3OC(=O)[C@@H](CN4CCCC(C)(C)C4)[C@@H]3CC[C@@]2(C)C=CC1=O	–	–	2	3	–
